Measured values reported in the SangsterLogP compilation.

Test: method code SF-AS, from DOI: 10.1177/1934578x0700201005
Details: pH 7.4

logD	Structure (SMILES)
3.52	O=c1c(O)c(-c2ccccc2)oc2ccccc12
2.98	COc1cccc2oc(-c3ccccc3)cc(=O)c12
3.01	O=c1cc(-c2ccccc2O)oc2ccccc12
3.22	COc1ccc2oc(-c3ccccc3)cc(=O)c2c1
3.12	COc1ccc2c(=O)cc(-c3ccccc3)oc2c1
3.26	COc1cccc(-c2cc(=O)c3ccccc3o2)c1
3.18	COc1c(-c2ccccc2)oc2ccccc2c1=O
3.14	COc1ccccc1-c1cc(=O)c2ccccc2o1

The next lines start with the compound.

Structure (SMILES)	logD
COc1ccc(-c2cc(=O)c3ccccc3o2)cc1	3.21
O=c1cc(-c2ccccc2)oc2c(O)cccc12	3.03
COc1ccc2c(=O)cc(-c3ccccc3)oc2c1O	2.9
O=c1cc(-c2cccc(O)c2)oc2ccccc12	3.03
O=c1cc(-c2ccccc2)oc2cccc(O)c12	3.39
